Assay results as given in patent US7105576B2, “Synergistic effects of nuclear transcription factor NF-κB inhibitors and anti-neoplastic agents” (priority 2002, dated 2006).

Tests used:
[1] = system: NF-κB; assay: EMSA of paclitaxel-induced NF-κB activation in MCF-7 cells; assay type: cell-based, human; details: curcumin pretreatment 2 h, then taxol 30 μM 12 hrs, EMSA of nuclear extract
Protocol: Nuclear extract was prepared and EMSA performed using 8 μg of nuclear protein. […] The nuclear extracts were prepared and analyzed by EMSA. The specificity of NF-κB can be examined by supershift analysis using antibodies against p50 and p65 subunits of NF-κB as described (109).

[2] = system: NF-κB; assay: EMSA of TNF-dependent NF-κB activation in MDA-MB 435 cells; assay type: cell-based, human; details: curcumin 0 to 50 μM 4 h, then 0.1 nM TNF 30 min
Protocol: MCF-7 cells treated with 0 and 0.1 nM TNF was included as negative and positive control. […] The nuclear extracts were prepared and analyzed by EMSA. The specificity of NF-κB can be examined by supershift analysis using antibodies against p50 and p65 subunits of NF-κB as described (109).

[3] = system: MCF-7 cells; assay: Cell viability by the MTT method; assay type: cell-based, human; details: taxol 10 μM with or without curcumin 10 μM, 72 h
[4] = system: MDA-MB-435 breast cancer cells; assay: Breast cancer metastasis after primary tumor removal, mammary fatpad xenograft; assay type: in vivo, female nude mice; details: for Incidence of macroscopic lung metastases / Median range of mets: 5 weeks after tumor removal; for Incidence of macroscopic lung metastases: paclitaxel 10 mg/kg i.p. day 10, 17, 24, 2% curcumin (w/w) diet; for Mean tumor Weight: MDA-MB-435 mammary fatpad tumors in nude mice; for Mean tumor Weight / Median range of mets: paclitaxel 10 mg/kg i.p., 2% curcumin diet; for Median range of mets: number of macroscopic lung metastases
Protocol: Human breast cancer cells (MDA-MB-231 or MDA-MB-435) that express constitutively active NF-κB can be injected into the mammary fatpad of female nude mice as previously described (127). […] Two millions MDA-MB-435 breast cancer cells were injected into the mammary fatpad of female nude mice. […] The treatment continue for up to 5 weeks after tumor removal, at which time the mice were killed and the number of visible metastases and presence of recurrent tumors or metastases in other organs were recorded. The lungs were fixed in 10% buffered formalin and paraffin-embedded section were stained with H&E to determine the incidence of micrometastases, or with antibodies recognizing the p65 subunit of NF-κB and HER2/neu. […] The significance of differences in the incidence of lung metastasis in the different groups was assessed using Fisher's exact test.

[5] = system: BT20, SKBR3, MCF-7, T47D, and ZR75-1; details: reference 63; cited from earlier work

For `COc1cc(/C=C/C(=O)CC(=O)/C=C/c2ccc(O)c(OC)c2)ccc1O` [Curcumin, diferuloylmethane], the “paclitaxel-induced NF-κB induction” value [1] was “downregulated paclitaxel-induced NF-κB induction in MCF-7 cells in a dose dependent manner”, the “TNF-dependent NF-κB activation” value [2] was “inhibited TNF-dependent NF-κB activation” and the “cytotoxic effects of paclitaxel (cell viability, MTT)” value [3] was “enhances the cytotoxic effects of paclitaxel”. For the same molecule, the “Incidence of macroscopic lung metastases” value [4] was 71%, the “Mean tumor Weight” value [4] was 0.71 ± 0.3 g and the “effect on breast cancer metastases to the lung” value ([4]; mouse xenograft model, Table 1 and FIG. 5) was “enhances the effect of paclitaxel and suppresses breast cancer metastases to the lung”. For the same molecule, the “Median range of mets” value [4] was 5 (0–44) and the “Growth of breast tumor cell lines” value [5] was “completely inhibited”.
For `CC(=O)O[C@H]1C(=O)[C@@]2(C)[C@H]([C@H](OC(=O)c3ccccc3)[C@]3(O)C[C@H](OC(=O)[C@H](O)[C@@H](NC(=O)c4ccccc4)c4ccccc4)C(C)=C1C3(C)C)[C@]1(OC(C)=O)CO[C@@H]1C[C@@H]2O` [paclitaxel, Paclitaxel], the “Incidence of macroscopic lung metastases” value [4] was 83%, the “Mean tumor Weight” value [4] was 0.74 ± 0.4 g and the “Median range of mets” value [4] was 20 (0–>100).
